Results: PMC9130746, “In Vitro Activity of Peptide Antibiotics in Combination With Other Antimicrobials on Extensively Drug-Resistant Acinetobacter baumannii in the Planktonic and Biofilm Cell” (Frontiers in Pharmacology, 2022)
Converted amounts (≈) assume the structure as drawn. Read-outs that look alike come from different tables or passages of the source.

Experiments:
[1] = test system: extensively drug-resistant A. baumannii clinical isolates (biofilm cell); assay type: cell-based, Acinetobacter baumannii; conditions: for MBIC: 24 h biofilm in TSB, then MH broth with drug 16–20 h 37°C, OD600
From the text: (§1) Nine XDRAB strains were isolated from clinical specimens such as the septum, urine, or respiratory lavage fluid of patients from the respiratory intensive care unit, intensive care unit, the cardiothoracic surgery department, and the neurology department at the First Affiliated Hospital of Chengdu Medical College during the period from 2018 to 2020 (Chengdu, Sichuan, China). In addition, A. baumannii ATCC 19606, Staphylococcus aureus ATCC 29213, and Escherichia coli ATCC 25922 were used as quality control strains in antimicrobial susceptibility testing (AST) and obtained from the American Type Culture Collection (ATCC, Manassas, VA, United States).
The minimum biofilm inhibitory concentrations (MBICs) were detected using a previous study protocol ([Kart et al., 2021]) for the antibacterial agents and peptide antibiotics for A. baumannii in the biofilm cell. First, bacterial cells were inoculated in Luria–Bertani agar medium at 37°C for 16–20 h. Next, the bacterial monoclones were resuspended in saline (0.9% sodium chloride) to adjust the bacterial content to reach the 0.5 McFarland turbidity standard. Then, 190 µl TSB and 10 µl bacterial resuspension were mixed in a 96-well plate. After incubating at 37°C for 24 h, the medium was aspirated, and 200 µl PBS was added to wash three times. Finally, 190 μl MH broth medium and 10 µl corresponding antibiotics were added into 96-well plate (NEST TC, 701001, www.cell-nest.com). The optical density was measured at OD600 after incubating for 16–20 h at 37°C.

[2] = test system: extensively drug-resistant A. baumannii clinical isolates (planktonic cell); test: microbe, parasite or virus in culture; assay type: cell-based, Acinetobacter baumannii; conditions: for MIC: planktonic, broth microdilution, CAMHB, 37°C 16–20 h, OD600
From the text: as §1
The minimum inhibitory concentrations (MICs) were determined by the broth microdilution method for the antibacterial agents and peptide antibiotics for A. baumannii based on the guidelines provided by the Clinical and Laboratory Standards Institute (CLSI) ([Humphries et al., 2021]). Briefly, bacterial cells were inoculated in Luria–Bertani agar medium at 37°C for 16–20 h, and then resuspended in saline (0.9% sodium chloride) to adjust the bacterial content to reach the 0.5 McFarland turbidity standard, followed by a 20-fold dilution. Antimicrobial solutions were prepared according to the CLSI ([Humphries et al., 2021]). Finally, 180 μl CAMHB, 10 µl corresponding antimicrobials, and 10 µl bacterial resuspension were added into 96-well plate (NEST TC, 701001, www.cell-nest.com). The value of OD600 was measured after incubating at 37°C for 16–20 h.

[3] = after XDRAB biofilm formation, nine isolates
[4] = Acinetobacter baumannii, isolate AB1, read-out: MIC
[5] = Acinetobacter baumannii, isolate AB2, read-out: MIC
[6] = Acinetobacter baumannii, isolate AB3, read-out: MIC
[7] = Acinetobacter baumannii, isolate AB4, read-out: MIC
[8] = Acinetobacter baumannii, isolate AB5, read-out: MIC
[9] = Acinetobacter baumannii, isolate AB6, read-out: MIC
[10] = Acinetobacter baumannii, isolate AB7, read-out: MIC
[11] = Acinetobacter baumannii, isolate AB8, read-out: MIC
[12] = Acinetobacter baumannii, isolate AB9, read-out: MIC

| MIC [2, 4] [µg/mL] | MIC [2, 5] [µg/mL] | MIC [2, 6] [µg/mL] | MIC [2, 7] [µg/mL] | MIC [2, 8] [µg/mL] | MIC [2, 9] [µg/mL] | MIC [2, 10] [µg/mL] | MIC [2, 11] [µg/mL] | MIC [2, 12] [µg/mL] | Compound | further results |
| --- | --- | --- | --- | --- | --- | --- | --- | --- | --- | --- |
| 1 (≈ 1.71 µM) | 1 (≈ 1.71 µM) | 1 (≈ 1.71 µM) | 1 (≈ 1.71 µM) | 1 (≈ 1.71 µM) | 1 (≈ 1.71 µM) | 1 (≈ 1.71 µM) | 1 (≈ 1.71 µM) | 0.5 (≈ 0.854 µM) | CN(C)c1cc(NC(=O)CNC(C)(C)C)c(O)c2c1C[C@H]1C[C@H]3[C@H](N(C)C)C(O)=C(C(N)=O)C(=O)[C@@]3(O)C(O)=C1C2=O [Tigecycline, tigecycline] | intermediate rate [1, 3]: 67%; resistance rate [1, 3]: 22%; sensitivity rate [1, 3]: 11%; sensitivity rate ([2]; planktonic cell, nine isolates): 100% |
| – | – | – | – | – | – | – | – | – | teicoplanin | MBIC ([1]; isolate AB2): 64 µg/mL; MBIC ([1]; isolate AB3): 64 µg/mL; MBIC ([1]; isolate AB6): 64 µg/mL; MBIC ([1]; isolate AB9): 64 µg/mL; MIC ([2]; isolate AB1): 64 µg/mL; MIC ([2]; isolate AB2): 64 µg/mL; MIC ([2]; isolate AB3): 32 µg/mL; MIC ([2]; isolate AB4): 32 µg/mL; MIC ([2]; isolate AB5): 64 µg/mL; MIC ([2]; isolate AB6): 32 µg/mL; MIC ([2]; isolate AB7): 128 µg/mL; MIC ([2]; isolate AB8): 32 µg/mL; MIC ([2]; isolate AB9): 64 µg/mL |
| > 1020 | > 1020 | > 1020 | > 1020 | > 1020 | > 1020 | > 1020 | > 1020 | > 1020 | CCN1CCN(C(=O)N[C@@H](C(=O)N[C@@H]2C(=O)N3[C@@H]2SC(C)(C)[C@@H]3C(=O)O)c2ccccc2)C(=O)C1=O [Piperacillin, piperacillin] | – |
| 16 (≈ 35 µM) | 16 (≈ 35 µM) | 16 (≈ 35 µM) | 16 (≈ 35 µM) | 16 (≈ 35 µM) | 16 (≈ 35 µM) | 16 (≈ 35 µM) | 16 (≈ 35 µM) | 16 (≈ 35 µM) | CN(C)c1ccc(O)c2c1C[C@H]1C[C@H]3[C@H](N(C)C)C(O)=C(C(N)=O)C(=O)[C@@]3(O)C(O)=C1C2=O [Minocycline, minocycline] | – |
| 32 (≈ 99 µM) | 32 (≈ 99 µM) | 32 (≈ 99 µM) | 32 (≈ 99 µM) | 32 (≈ 99 µM) | 32 (≈ 99 µM) | 32 (≈ 99 µM) | 32 (≈ 99 µM) | 32 (≈ 99 µM) | O=C(N[C@H](CO)[C@H](O)c1ccc([N+](=O)[O-])cc1)C(Cl)Cl [Chloramphenicol, chloramphenicol] | – |
| – | – | – | – | – | – | – | – | – | CN[C@H](CC(C)C)C(=O)N[C@H]1C(=O)N[C@@H](CC(N)=O)C(=O)N[C@H]2C(=O)N[C@H]3C(=O)N[C@H](C(=O)N[C@H](C(=O)O)c4cc(O)cc(O)c4-c4cc3ccc4O)[C@H](O)c3ccc(c(Cl)c3)Oc3cc2cc(c3O[C@@H]2O[C@H](CO)[C@@H](O)[C@H](O)[C@H]2O[C@H]2C[C@](C)(N)[C@H](O)[C@H](C)O2)Oc2ccc(cc2Cl)[C@H]1O [Vancomycin, vancomycin] | MBIC ([1]; isolate AB1): 256 µg/mL; MBIC ([1]; isolate AB2): 128 µg/mL; MBIC ([1]; isolate AB3): 128 µg/mL; MBIC ([1]; isolate AB4): 128 µg/mL; MBIC ([1]; isolate AB5): 256 µg/mL; MBIC ([1]; isolate AB6): 256 µg/mL; MBIC ([1]; isolate AB7): 128 µg/mL; MBIC ([1]; isolate AB8): 128 µg/mL; MBIC ([1]; isolate AB9): 128 µg/mL; MIC ([2]; isolate AB1): 64 µg/mL (≈ 44.2 µM); MIC ([2]; isolate AB2): 64 µg/mL (≈ 44.2 µM); MIC ([2]; isolate AB3): 128 µg/mL (≈ 88.3 µM); MIC ([2]; isolate AB4): 64 µg/mL (≈ 44.2 µM); MIC ([2]; isolate AB5): 128 µg/mL (≈ 88.3 µM); MIC ([2]; isolate AB6): 128 µg/mL (≈ 88.3 µM); MIC ([2]; isolate AB7): 128 µg/mL (≈ 88.3 µM); MIC ([2]; isolate AB8): 64 µg/mL (≈ 44.2 µM); MIC ([2]; isolate AB9): 128 µg/mL (≈ 88.3 µM) |

| Compound | MIC [2, 4] [µg/mL] | MIC [2, 5] [µg/mL] | MIC [2, 6] [µg/mL] | MIC [2, 7] [µg/mL] | MIC [2, 8] [µg/mL] | MIC [2, 9] [µg/mL] | MIC [2, 10] [µg/mL] | MIC [2, 11] [µg/mL] | MIC [2, 12] [µg/mL] | further results |
| --- | --- | --- | --- | --- | --- | --- | --- | --- | --- | --- |
| CN(C)[C@@H]1C(O)=C(C(N)=O)C(=O)[C@@]2(O)C(O)=C3C(=O)c4c(O)cccc4[C@@](C)(O)[C@H]3C[C@@H]12 [Tetracycline, tetracycline] | > 1020 | > 1020 | > 1020 | > 1020 | > 1020 | > 1020 | > 1020 | > 1020 | > 1020 | – |
